Reference: paper PMC9250534, “Synthesis and direct assay of large macrocycle diversities by combinatorial late-stage modification at picomole scale” (Nature Communications, 2022)
Numbered stars: 1 amine (or outer) side, 2 acyl side, 3 side chain; on linkers, the order of the positions; unused ones are H or OH. Bridge positions count the residues as written; N and C are the ends. Square brackets hold non-standard residues; d marks the D form. Peptide text beside a SMILES is read from it. ξ: configuration not given here. Pro(4S-NHCO(5-Cl-2-thienyl)) = O=C(N[C@@H]1CN[C@H](C(=O)O)C1)c1ccc(Cl)s1; ξPro(4ξ-NHCOC6H4-4-Cl) = O=C(NC1CNC(C(=O)O)C1)c1ccc(Cl)cc1; Cysteamide = C(CS[*:3])N[*:1]; Mpa = O=C(O)CCS

Molecular target: MDM2 (Homo sapiens, UniProt Q00987)
Sequence (Q00987 whole entry): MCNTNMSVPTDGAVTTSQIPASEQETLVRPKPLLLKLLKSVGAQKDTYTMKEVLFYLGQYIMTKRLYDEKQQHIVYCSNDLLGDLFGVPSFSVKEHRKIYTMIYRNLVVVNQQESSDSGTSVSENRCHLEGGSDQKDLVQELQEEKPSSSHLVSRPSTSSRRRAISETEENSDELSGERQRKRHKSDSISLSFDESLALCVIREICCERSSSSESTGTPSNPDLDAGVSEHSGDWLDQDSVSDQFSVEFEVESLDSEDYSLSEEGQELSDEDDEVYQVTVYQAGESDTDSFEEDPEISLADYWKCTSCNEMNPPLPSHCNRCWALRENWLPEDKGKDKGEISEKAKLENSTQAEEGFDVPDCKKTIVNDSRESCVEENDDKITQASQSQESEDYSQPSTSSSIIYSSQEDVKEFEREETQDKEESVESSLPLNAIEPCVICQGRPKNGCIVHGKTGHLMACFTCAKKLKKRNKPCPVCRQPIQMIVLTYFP
Assay: MDM2 binding screen: displacement of fluorescent p53 peptide probe FP53 (fluorescence polarization)
Conditions: crude macrocycle reactions; for fraction fluorescent probe displaced, Screen: initial screen
Procedure, shortened: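 Macrocycle reaction products at a final 10 µM were tested for displacement of a p53-based fluorescent peptide from human MDM2. Fluorescence anisotropy (ex 485/em 535 nm) was read once per macrocycle at 25 °C.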

SMILES | fraction fluorescent probe displaced, Screen (Acid 91) | fraction fluorescent probe displaced, Replicate (Acid 91) | fraction fluorescent probe displaced, Screen (Acid 14) | fraction fluorescent probe displaced, Replicate (Acid 14) | fraction fluorescent probe displaced, Screen (Acid 25) | fraction fluorescent probe displaced, Replicate (Acid 25)
O=C(C=Cc1ccccc1)NC1CC2C(=O)NC(Cc3ccccc3)C(=O)NCCC(=O)NCCSSCCC(=O)N2C1 (stereo not drawn) [X D5 F B2 Acid 91] | 0.0563 | -0.0333 | – | – | – | –
O=C(NC1CC2C(=O)NC(Cc3ccccc3)C(=O)N3CCCC(C3)C(=O)NCCSSCCC(=O)N2C1)c1ccc(Cl)cc1 (stereo not drawn) [X D5 F B4 Acid 25] | – | – | – | – | 0.0244 | 0.0211
O=C1NCCSSCCC(=O)N2C[C@@H](NC(=O)c3ccc(Cl)cc3)C[C@H]2C(=O)N[C@@H](Cc2ccccc2)C(=O)NCc2cccc1c2 [X D5 F B5 Acid 25] | – | – | – | – | 0.0569 | 0.0465
O=C(/C=C/c1ccccc1)N[C@H]1C[C@H]2C(=O)N[C@@H](Cc3ccccc3)C(=O)NCc3cccc(c3)C(=O)NCCSSCCC(=O)N2C1 [X D5 F B5 Acid 91] | -0.05 | -0.00827 | – | – | – | –
O=C(C=Cc1ccccc1)NC1CC2C(=O)NC(Cc3c[nH]c4ccccc34)C(=O)N3CCCC(C3)C(=O)NCCSSCCC(=O)N2C1 (stereo not drawn) [X D5 W B4 Acid 91] | 0.0563 | 0.07 | – | – | – | –
O=C(/C=C/c1ccccc1)N[C@H]1C[C@H]2C(=O)N[C@@H](Cc3c[nH]c4ccccc34)C(=O)NCc3cccc(c3)C(=O)NCCSSCCC(=O)N2C1 [X D5 W B5 Acid 91] | -0.05 | 0.0168 | – | – | – | –

More lines, now with the values ahead:

fraction fluorescent probe displaced, Screen (Acid 91) | fraction fluorescent probe displaced, Replicate (Acid 91) | fraction fluorescent probe displaced, Screen (Acid 14) | fraction fluorescent probe displaced, Replicate (Acid 14) | fraction fluorescent probe displaced, Screen (Acid 25) | fraction fluorescent probe displaced, Replicate (Acid 25) | SMILES
– | – | 0.0241 | 0.10 | – | – | O=C(NC1CC2C(=O)NC(Cc3ccccc3)C(=O)N3CCCC(C3)C(=O)NCCSSCCC(=O)N2C1)c1ccc(Cl)s1 (stereo not drawn) [X D5 F B4 Acid 14]
– | – | 0.11 | -0.03 | – | – | O=C1NCCSSCCC(=O)N2CC(NC(=O)c3ccc(Cl)s3)CC2C(=O)NC(Cc2ccccc2)C(=O)NCc2cccc1c2 (stereo not drawn) [X D5 F B5 Acid 14]
– | – | 0.23 | 0.10 | – | – | O=C(N[C@H]1C[C@H]2C(=O)N[C@@H](Cc3c[nH]c4ccccc34)C(=O)N3CCC[C@H]3C(=O)NCCSSCCC(=O)N2C1)c1ccc(Cl)s1 [X D5 W B1 Acid 14] ([Mpa][Pro(4S-NHCO(5-Cl-2-thienyl))]WP-Cysteamide; disulfide 1-C)
– | – | – | – | 0.22 | 0.10 | O=C(NC1CC2C(=O)NC(Cc3c[nH]c4ccccc34)C(=O)N3CCCC3C(=O)NCCSSCCC(=O)N2C1)c1ccc(Cl)cc1 (stereo not drawn) [X D5 W B1 Acid 25] ([Mpa][ξPro(4ξ-NHCOC6H4-4-Cl)]WP-Cysteamide; disulfide 1-C; configuration not given here)
– | – | 0.17 | 0.17 | – | – | O=C1CCNC(=O)C(Cc2c[nH]c3ccccc23)NC(=O)C2CC(NC(=O)c3ccc(Cl)s3)CN2C(=O)CCSSCCN1 (stereo not drawn) [X D5 W B2 Acid 14]
0.00268 | -0.0333 | – | – | – | – | O=C(/C=C/c1ccccc1)N[C@H]1C[C@H]2C(=O)N[C@@H](Cc3c[nH]c4ccccc34)C(=O)NCCC(=O)NCCSSCCC(=O)N2C1 [X D5 W B2 Acid 91]
– | – | – | – | 0.09 | 0.15 | O=C(NC1CC2C(=O)NC(Cc3c[nH]c4ccccc34)C(=O)N3CCCC(C3)C(=O)NCCSSCCC(=O)N2C1)c1ccc(Cl)cc1 (stereo not drawn) [X D5 W B4 Acid 25]
– | – | 0.08 | 0.0211 | – | – | O=C1NCCSSCCC(=O)N2CC(NC(=O)c3ccc(Cl)s3)CC2C(=O)NC(Cc2c[nH]c3ccccc23)C(=O)NCc2cccc1c2 (stereo not drawn) [X D5 W B5 Acid 14]
– | – | – | – | 0.0569 | 0.0465 | O=C1NCCSSCCC(=O)N2C[C@@H](NC(=O)c3ccc(Cl)cc3)C[C@H]2C(=O)N[C@@H](Cc2c[nH]c3ccccc23)C(=O)NCc2cccc1c2 [X D5 W B5 Acid 25]
